Experimental findings from PubChem BioAssay AID264 (DTP/NCI, 2004) are described below.

This assay deals with nude mice, LX-1 lung xenograft intrarenal, tumor weight T/C. Kind of assay: NCI In Vivo Anticancer Drug Screen. Data for tumor model Human Lung LX-1 Xenograft (intrarenal inoculation) in NU/NU Swiss (nude) mice. The following applies: endpoint: mean tumor weight change, higher = larger tumour. In short, it runs like this: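 Compound-treated mice carrying transplanted tumors were compared with vehicle-treated controls. Tumor size was the measured end point, and the value is the treated-group measurement divided by the control-group measurement (T/C).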

The mark [1] stands for this setting: dose: 100.0 mg/kg/injection, schedule: Q01DX010 (sc), vehicle: saline with Tween-80.
Setting [2] is: dose: 200.0 mg/kg/injection, schedule: Q01DX010 (sc), vehicle: saline with Tween-80.
Where [3] appears, read: dose: 150.0 mg/kg/injection, schedule: Q04DX003 (sc), vehicle: suspension in saline.
[4] abbreviates: dose: 3.13 mg/kg/injection, schedule: Q01DX010 (sc), vehicle: Klucel (hydroxypropylcellulose) (HPC).
Where [5] appears, read: dose: 6.25 mg/kg/injection, schedule: Q01DX010 (sc), vehicle: Klucel (hydroxypropylcellulose) (HPC).
Where [6] appears, read: dose: 12.5 mg/kg/injection, schedule: Q01DX010 (sc), vehicle: Klucel (hydroxypropylcellulose) (HPC).
[7] abbreviates: dose: 6.25 mg/kg/injection, schedule: Q01DX010 (sc), vehicle: saline with Tween-80.

Values joined by “and” are separate entries in the source; they are usually repeats but may differ in a detail not shown here. Identical values can stand only once. Results filed as inconclusive are left out. Peptide text beside a SMILES is read from it. * marks the point of attachment. Trt = c1ccc(C(c2ccccc2)(c2ccccc2)*)cc1; Cbz = O=C(OCc1ccccc1)*

Take `COc1cc(NCc2ccc3nc(N)nc(N)c3c2C)cc(OC)c1OC`: the T/C (dose: 1.25 mg/kg/injection, schedule: Q01DX010 (sc), vehicle: sodium bicarbonate) is 76 % of control; the T/C (dose: 2.5 mg/kg/injection, schedule: Q01DX010 (sc), vehicle: sodium bicarbonate) is 81 % of control; the T/C (dose: 5.0 mg/kg/injection, schedule: Q01DX010 (sc), vehicle: sodium bicarbonate) was 36 % of control; the T/C (dose: 75.0 mg/kg/injection, schedule: Q04DX003 (sc), vehicle: water) was 77 % of control; the T/C (dose: 150.0 mg/kg/injection, schedule: Q04DX003 (sc), vehicle: water) was 67 % of control.

With `Cn1/c2cc/c1=C(\c1ccc(S(=O)(=O)O)cc1)c1ccc([n-]1)/C(c1ccc(S(=O)(=O)O)cc1)=c1/cc/c([nH]1)=C(\c1ccc(S(=O)(=O)O)cc1)c1ccc([n-]1)/C=2c1ccc(S(=O)(=O)O)cc1.O.O=S(=O)(O)C(F)(F)F.[Cu+2]`, the T/C is 100 % of control (dose: 200.0 mg/kg/injection, schedule: Q04DX003 (sc), vehicle: suspension in saline); 109 % of control (dose: 400.0 mg/kg/injection, schedule: Q04DX003 (sc), vehicle: suspension in saline); 94 % of control (dose: 800.0 mg/kg/injection, schedule: Q04DX003 (sc), vehicle: suspension in saline).

As for `CC(C)CC(NC(=O)CF)C(=O)O` (configuration not stated), the T/C (dose: 5.0 mg/kg/injection, schedule: Q04DX003 (sc), vehicle: saline) was 104 % of control; the T/C (dose: 10.0 mg/kg/injection, schedule: Q04DX003 (sc), vehicle: saline) was 111 % of control; the T/C (dose: 20.0 mg/kg/injection, schedule: Q04DX003 (sc), vehicle: saline) is 70 % of control.

For `CCC1=C[C@H]2CN(CCc3c([nH]c4ccccc34)[C@@](C(=O)OC)(c3cc4c(cc3OC)N(C)[C@H]3[C@@](O)(C(=O)NC)[C@H](OC(C)=O)[C@]5(CC)C=CCN6CC[C@]43[C@@H]65)C2)C1`, the T/C is 63 % of control (dose: 0.5 mg/kg/injection, schedule: Q04DX003 (sc), vehicle: water); 67 % of control (dose: 1.0 mg/kg/injection, schedule: Q04DX003 (sc), vehicle: water); 10 % of control (dose: 4.0 mg/kg/injection, schedule: Q04DX003 (sc), vehicle: water).

For `CO[C@H]1C[C@@H]2CC[C@@H](C)[C@@](O)(O2)C(=O)C(=O)N2CCCC[C@H]2C(=O)O[C@H]([C@H](C)C[C@@H]2CC[C@@H](O)[C@H](OC)C2)CC(=O)[C@H](C)C=C(C)[C@@H](O)[C@@H](OC)C(=O)[C@H](C)C[C@H](C)/C=C/C=C/C=C1C`, the T/C reads like this: under setting [1], 72 % of control; under setting [2], 47 % of control; (dose: 400.0 mg/kg/injection, schedule: Q01DX010 (sc), vehicle: saline with Tween-80) 37 % of control; (dose: 800.0 mg/kg/injection, schedule: Q01DX010 (sc), vehicle: saline with Tween-80) 69 % of control.

For the compound `CN1C(=O)CC2(CCN(CCCC(=O)c3ccc(F)cc3)CC2)C1=O`, the T/C (dose: 18.75 mg/kg/injection, schedule: Q04DX003 (sc), vehicle: suspension in saline) was 33 % of control; the T/C (dose: 75.0 mg/kg/injection, schedule: Q04DX003 (sc), vehicle: suspension in saline) was 85 % of control; the T/C under setting [3] is 77 % of control.

`COC(=O)C(CSC(c1ccccc1)(c1ccccc1)c1ccccc1)NC(=O)C(CC(N)=O)NC(=O)OCc1ccccc1` (stereo not drawn) (Cbz-Asn-Cys(Trt)-OMe; configuration not given here): the T/C runs as follows: (dose: 300.0 mg/kg/injection, schedule: Q04DX003 (sc), vehicle: distilled water + Tween-80) 79 % of control; (dose: 1200.0 mg/kg/injection, schedule: Q04DX003 (sc), vehicle: distilled water + Tween-80) 105 % of control; (dose: 2400.0 mg/kg/injection, schedule: Q04DX003 (sc), vehicle: distilled water + Tween-80) 116 % of control.

On to `OCC1OC(n2cnc3cc(Cl)c(Cl)cc32)C(O)C1O` (configuration not stated), for which the T/C by setting is: (dose: 300.0 mg/kg/injection, schedule: Q04DX003 (sc), vehicle: saline with Tween-80) 112 % of control; (dose: 600.0 mg/kg/injection, schedule: Q04DX003 (sc), vehicle: saline with Tween-80) 86 % of control; (dose: 1200.0 mg/kg/injection, schedule: Q04DX003 (sc), vehicle: saline with Tween-80) 94 % of control; (dose: 2400.0 mg/kg/injection, schedule: Q04DX003 (sc), vehicle: saline with Tween-80) 72 % of control.

With `C=C1C(=O)OCC2C(C(=O)O)=CC3C(C)C(C)=CC123` (configuration not stated), the T/C runs as follows: under setting [4], 56 % of control; under setting [5], 109 % of control; under setting [6], 78 % of control; (dose: 25.0 mg/kg/injection, schedule: Q01DX010 (sc), vehicle: Klucel (hydroxypropylcellulose) (HPC)) 165 % of control.

Consider `Cc1cc(N(CC(C)Br)CC(C)Br)ccc1N=Nc1ccccc1C(=O)O` (configuration not stated), for which the T/C is 85 % of control (dose: 3.13 mg/kg/injection, schedule: Q01DX010 (sc), vehicle: saline with Tween-80) and 151 % of control under setting [7].

In the case of `ClCCCN1CCCCC1CCl` (configuration not stated), the T/C is, setting by setting: (dose: 12.5 mg/kg/injection, schedule: Q04DX003 (sc), vehicle: saline) 88 % of control; (dose: 25.0 mg/kg/injection, schedule: Q04DX003 (sc), vehicle: saline) 71 % of control.

As for `CC(C)CC(=O)NC(C(=O)NC(C(=O)NC(CC(C)C)C(O)CC(=O)NC(C)C(=O)NC(CC(C)C)C(O)CC(=O)O)C(C)C)C(C)C` (configuration not stated), the T/C runs as follows: (dose: 150.0 mg/kg/injection, schedule: Q04DX003 (sc), vehicle: Klucel (hydroxypropylcellulose) (HPC)) 70 % of control; (dose: 300.0 mg/kg/injection, schedule: Q04DX003 (sc), vehicle: Klucel (hydroxypropylcellulose) (HPC)) 93 % of control; (dose: 600.0 mg/kg/injection, schedule: Q04DX003 (sc), vehicle: Klucel (hydroxypropylcellulose) (HPC)) 66 % of control; (dose: 1200.0 mg/kg/injection, schedule: Q04DX003 (sc), vehicle: Klucel (hydroxypropylcellulose) (HPC)) 51 % of control.

For `CC(=O)N(C)C`, for the setting “dose: 450.0 mg/kg/injection, schedule: Q01DX010 (sc), vehicle: saline”, the T/C is 70 % of control.

Regarding `C[C@@H]1C[C@H]2[C@@H]3CCC4=CC(=O)C=C[C@]4(C)[C@@]3(F)[C@@H](O)C[C@]2(C)[C@@]1(O)C(=O)CO`, the T/C is, setting by setting: (dose: 1.56 mg/kg/injection, schedule: Q01DX010 (sc), vehicle: Klucel (hydroxypropylcellulose) (HPC)) 41 % of control; under setting [4], 32 % of control; under setting [5], 33 % of control; under setting [6], 26 % of control.

On to `O=Cc1ccccc1`, for which the T/C (dose: 100.0 mg/kg/injection, schedule: Q04DX003 (sc), vehicle: Klucel (hydroxypropylcellulose) (HPC)) was 64 % of control; the T/C (dose: 200.0 mg/kg/injection, schedule: Q04DX003 (sc), vehicle: Klucel (hydroxypropylcellulose) (HPC)) is 75 % of control; the T/C (dose: 400.0 mg/kg/injection, schedule: Q04DX003 (sc), vehicle: Klucel (hydroxypropylcellulose) (HPC)) was 73 % of control; the T/C (dose: 800.0 mg/kg/injection, schedule: Q04DX003 (sc), vehicle: Klucel (hydroxypropylcellulose) (HPC)) is 112 % of control.

Turning to `NC(=S)c1ncn(C2OC(CO)C(O)C2O)c1N` (configuration not stated), the T/C is, setting by setting: under setting [3], 87 % of control; (dose: 300.0 mg/kg/injection, schedule: Q04DX003 (sc), vehicle: suspension in saline) 102 % of control; (dose: 600.0 mg/kg/injection, schedule: Q04DX003 (sc), vehicle: suspension in saline) 98 % of control; (dose: 1200.0 mg/kg/injection, schedule: Q04DX003 (sc), vehicle: suspension in saline) 103 % of control.

For the compound `O=C1C2CC=CCC2C(=O)N1SC(Cl)(Cl)Cl` (configuration not stated), the T/C runs as follows: under setting [7], 102 % of control; (dose: 12.5 mg/kg/injection, schedule: Q01DX010 (sc), vehicle: saline with Tween-80) 56 % of control; (dose: 50.0 mg/kg/injection, schedule: Q01DX010 (sc), vehicle: saline with Tween-80) 64 % of control and 86 % of control; under setting [1], 76 % of control; under setting [2], 97 % of control.

As to `CN(C)C(=O)c1cccc(COc2ccc(N3C(N)=NC(N)=NC3(C)C)cc2Cl)c1`, the T/C was 85 % of control (dose: 6.25 mg/kg/injection, schedule: Q01DX010 (sc), vehicle: saline); 57 % of control (dose: 12.5 mg/kg/injection, schedule: Q01DX010 (sc), vehicle: saline); 25 % of control (dose: 25.0 mg/kg/injection, schedule: Q01DX010 (sc), vehicle: saline); 91 % of control (dose: 25.0 mg/kg/injection, schedule: Q01DX010 (sc), vehicle: suspension in saline).
